Results: patent US20100267561A1, “HERBICIDAL PYRIDAZINONE DERIVATIVES” (priority 2007, published 2010)

What was measured:
Format in all cases: in vivo
[1] = test system: barnyardgrass (Echinochloa crus-galli); experiment: Test A pre-/postemergence plant response
Summary of the method: (§1)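 Ratings are visual, 0–100, where 100 means complete control and 0 no effect, taken roughly 10 days after treatment by comparison with untreated controls. Formulation: non-phytotoxic solvent mixture with surfactant.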

[2] = test system: corn (Zea mays); experiment: Test A pre-/postemergence plant response
Summary of the method: as §1

[3] = test system: giant foxtail (Setaria faberi); experiment: Test A pre-/postemergence plant response
Summary of the method: as §1

[4] = test system: large crabgrass (Digitaria sanguinalis); experiment: Test A pre-/postemergence plant response
Summary of the method: as §1

[5] = test system: morningglory (Ipomoea coccinea); experiment: Test A pre-/postemergence plant response
Summary of the method: as §1

[6] = test system: pigweed (Amaranthus retroflexus); experiment: Test A pre-/postemergence plant response
Summary of the method: as §1

[7] = test system: velvetleaf (Abutilon theophrasti); experiment: Test A pre-/postemergence plant response
Summary of the method: as §1

[8] = test system: wheat (Triticum aestivum); experiment: Test A pre-/postemergence plant response
Summary of the method: as §1

[9] = test system: bermudagrass (Cynodon dactylon); experiment: Test B pre-/postemergence plant response; conditions: for Bermudagrass plant response rating: 8 g ai/ha
Summary of the method: (§2)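 Preemergence and postemergence (plants 2-18 cm, 1- to 4-leaf stage) applications used test chemicals in a non-phytotoxic solvent with surfactant. Plants were held in a greenhouse 13 to 15 days, then rated visually against controls on a 0-100 scale (0 no effect, 100 complete control).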

[10] = test system: cocklebur (Xanthium strumarium); experiment: Test B pre-/postemergence plant response; conditions: for Cocklebur plant response rating: 8 g ai/ha
Summary of the method: as §2

[11] = test system: yellow nutsedge (Cyperus esculentus); experiment: Test B pre-/postemergence plant response; conditions: for Nutsedge, Yellow plant response rating: 8 g ai/ha
Summary of the method: as §2

[12] = test system: chickweed (Stellaria media); experiment: Test B postemergence plant response; conditions: for Plant response rating, Chickweed: Postemergence
Summary of the method: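 Postemergence spray on 1- to 4-leaf plants (2–18 cm); greenhouse 13–15 d; visual rating vs controls, 0 = no effect, 100 = complete control; dash = not tested.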

[13] = Postemergence, 125 g ai/ha, 0 to 100 scale, 0 no effect, 100 complete control
[14] = Postemergence, 500 g ai/ha, 0 to 100 scale, 0 no effect, 100 complete control
[15] = Preemergence, 125 g ai/ha, 0 to 100 scale (0 no effect, 100 complete control)
[16] = Preemergence, 500 g ai/ha, 0 to 100 scale (0 no effect, 100 complete control)
[17] = Postemergence, 16 g ai/ha, scale 0 to 100
[18] = Postemergence, 31 g ai/ha, scale 0 to 100, 0 no effect, 100 complete control
[19] = Postemergence, 62 g ai/ha, scale 0 to 100, 0 no effect, 100 complete control
[20] = Preemergence, 16 g ai/ha, scale 0 to 100 (0 no effect, 100 complete control)
[21] = Preemergence, 31 g ai/ha, 0 to 100 scale, 0 no effect, 100 complete control
[22] = Preemergence, 62 g ai/ha, scale 0 to 100

For `Cn1ncc(O)c(-c2nn(-c3ccc(Cl)cc3)cc2Cl)c1=O` [Compound 28], the “Plant response rating, Barnyardgrass” value [1, 13] was 60, the “Plant response rating, Barnyardgrass” value [1, 14] was 100 and the “Plant response rating, Barnyardgrass” value [1, 15] was 100. For the same compound, the “Plant response rating, Barnyardgrass” value [1, 16] was 100, the “Plant response rating, Corn” value [2, 13] was 40 and the “Plant response rating, Corn” value [2, 14] was 90. The “Plant response rating, Corn” value [2, 15] was 80, the “Plant response rating, Corn” value [2, 16] was 90 and the “Plant response rating, Foxtail, Giant” value [3, 13] was 90. For the same compound, the “Plant response rating, Foxtail, Giant” value [3, 14] was 90, the “Plant response rating, Foxtail, Giant” value [3, 15] was 100 and the “Plant response rating, Foxtail, Giant” value [3, 16] was 100. The “Plant response rating, Crabgrass, Large” value [4, 13] was 80, the “Plant response rating, Crabgrass, Large” value [4, 14] was 90 and the “Plant response rating, Crabgrass, Large” value [4, 15] was 90. For the same compound, the “Plant response rating, Crabgrass, Large” value [4, 16] was 100, the “Plant response rating, Morningglory” value [5, 13] was 0 and the “Plant response rating, Morningglory” value [5, 14] was 30. The “Plant response rating, Morningglory” value [5, 16] was 0, the “Plant response rating, Pigweed” value [6, 13] was 0 and the “Plant response rating, Pigweed” value [6, 14] was 0. The “Plant response rating, Pigweed” value [6, 15] was 0, the “Plant response rating, Pigweed” value [6, 16] was 0 and the “Plant response rating, Velvetleaf” value [7, 13] was 0. The “Plant response rating, Velvetleaf” value [7, 14] was 0, the “Plant response rating, Velvetleaf” value [7, 15] was 0 and the “Plant response rating, Velvetleaf” value [7, 16] was 20. The “Plant response rating, Wheat” value [8, 13] was 50, the “Plant response rating, Wheat” value [8, 14] was 70 and the “Plant response rating, Wheat” value [8, 15] was 70. The “Plant response rating, Wheat” value [8, 16] was 100, the “Bermudagrass plant response rating” value ([9]; postemergence, 0-100 scale) was 65 and the “Plant response rating, Bermudagrass” value [9, 17] was 80. For the same compound, the “Plant response rating, Bermudagrass” value [9, 18] was 100, the “Plant response rating, Bermudagrass” value [9, 19] was 100 and the “Bermudagrass plant response rating” value ([9]; Preemergence, scale 0 to 100 (0 no effect, 100 complete control)) was 0. For the same compound, the “Plant response rating, Bermudagrass” value [9, 20] was 100, the “Plant response rating, Bermudagrass” value [9, 21] was 100 and the “Plant response rating, Bermudagrass” value [9, 22] was 100. The “Cocklebur plant response rating” value ([10]; postemergence, 0-100 scale) was 0, the “Plant response rating, Cocklebur” value [10, 17] was 0 and the “Plant response rating, Cocklebur” value [10, 18] was 0. The “Plant response rating, Cocklebur” value [10, 19] was 0, the “Plant response rating, Cocklebur” value [10, 20] was 0 and the “Plant response rating, Cocklebur” value [10, 21] was 0. For the same compound, the “Plant response rating, Cocklebur” value [10, 22] was 0, the “Cocklebur plant response rating” value ([10]; Preemergence, scale 0 to 100) was 0 and the “Nutsedge, Yellow plant response rating” value ([11]; postemergence, 0-100 scale) was 0. For the same compound, the “Plant response rating, Nutsedge, Yellow” value [11, 17] was 0, the “Plant response rating, Nutsedge, Yellow” value [11, 18] was 0 and the “Plant response rating, Nutsedge, Yellow” value [11, 19] was 0. For the same compound, the “Plant response rating, Nutsedge, Yellow” value [11, 20] was 0, the “Plant response rating, Nutsedge, Yellow” value [11, 21] was 0 and the “Plant response rating, Nutsedge, Yellow” value [11, 22] was 0. For the same compound, the “Nutsedge, Yellow plant response rating” value ([11]; Preemergence, scale 0 to 100) was 0, the “Chickweed plant response rating” value ([12]; 8 g ai/ha, postemergence, 0-100 scale) was 0 and the “Plant response rating, Chickweed” value ([12]; 16 g ai/ha, scale 0 to 100) was 0. The “Plant response rating, Chickweed” value ([12]; 31 g ai/ha, scale 0 to 100, 0 no effect, 100 complete control) was 0 and the “Plant response rating, Chickweed” value ([12]; 62 g ai/ha, scale 0 to 100, 0 no effect, 100 complete control) was 0.
